According to patent US10479786B2, “Protein kinase inhibitors” (Princeton Drug Discovery Inc, priority 2016, dated 2019):

Tests used:
Mino = experiment: Cell inhibition assay (PrestoBlue, 48 h); type: cell-based; conditions: Homo sapiens, Mino cells, read-out: IC50, inhibition of growth
PIK3CA/PIK3R1 = biological target: T1, PIK3CA/PIK3R1 (Homo sapiens, UniProt P42336); experiment: Off-chip Mobility Shift Assay, kinase inhibition; type: biochemical; conditions: at 10 nM; recombinant PIK3CA/PIK3R1
T1 construct: purchased Carna Biosciences, Inc

EPHA1 = biological target: T2, EPHA1 (Homo sapiens, UniProt P21709); experiment: Off-chip Mobility Shift Assay, kinase inhibition; type: biochemical; conditions: at 10 nM; recombinant EPHA1
T2 construct: purchased Carna Biosciences, Inc
T2 sequence (P21709 26-976): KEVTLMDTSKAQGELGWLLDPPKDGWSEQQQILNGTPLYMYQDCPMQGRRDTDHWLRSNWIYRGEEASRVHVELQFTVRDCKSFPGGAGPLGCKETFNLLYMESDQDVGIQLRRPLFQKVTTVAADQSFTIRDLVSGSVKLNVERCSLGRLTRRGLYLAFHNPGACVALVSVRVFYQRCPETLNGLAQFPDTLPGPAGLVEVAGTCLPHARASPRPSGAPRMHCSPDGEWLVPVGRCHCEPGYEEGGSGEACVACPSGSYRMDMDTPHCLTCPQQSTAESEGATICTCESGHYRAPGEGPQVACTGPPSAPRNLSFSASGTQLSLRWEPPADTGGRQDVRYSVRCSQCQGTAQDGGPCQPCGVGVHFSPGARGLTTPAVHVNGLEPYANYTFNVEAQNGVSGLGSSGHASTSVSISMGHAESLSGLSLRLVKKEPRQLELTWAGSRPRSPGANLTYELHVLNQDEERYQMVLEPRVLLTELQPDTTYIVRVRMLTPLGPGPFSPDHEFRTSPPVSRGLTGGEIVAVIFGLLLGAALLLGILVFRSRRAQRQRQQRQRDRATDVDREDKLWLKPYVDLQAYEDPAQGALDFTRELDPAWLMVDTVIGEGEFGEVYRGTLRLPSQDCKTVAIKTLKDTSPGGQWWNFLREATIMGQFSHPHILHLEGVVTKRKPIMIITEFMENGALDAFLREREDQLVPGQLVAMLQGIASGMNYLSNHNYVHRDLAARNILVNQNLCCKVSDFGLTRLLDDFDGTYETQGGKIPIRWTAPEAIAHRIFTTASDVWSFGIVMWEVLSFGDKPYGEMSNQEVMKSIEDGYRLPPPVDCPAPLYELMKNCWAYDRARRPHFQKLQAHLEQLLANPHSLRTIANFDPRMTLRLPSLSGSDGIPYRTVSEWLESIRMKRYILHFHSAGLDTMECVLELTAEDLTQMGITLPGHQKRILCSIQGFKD

BMX = biological target: T3, BMX (Homo sapiens, UniProt P51813); experiment: Off-chip Mobility Shift Assay, kinase inhibition; type: biochemical; conditions: recombinant BMX; for inhibition at 0.001 µM: at 1 nM; for inhibition at 0.01 µM: at 10 nM
T3 construct: purchased Carna Biosciences, Inc
T3 sequence (P51813 1-675): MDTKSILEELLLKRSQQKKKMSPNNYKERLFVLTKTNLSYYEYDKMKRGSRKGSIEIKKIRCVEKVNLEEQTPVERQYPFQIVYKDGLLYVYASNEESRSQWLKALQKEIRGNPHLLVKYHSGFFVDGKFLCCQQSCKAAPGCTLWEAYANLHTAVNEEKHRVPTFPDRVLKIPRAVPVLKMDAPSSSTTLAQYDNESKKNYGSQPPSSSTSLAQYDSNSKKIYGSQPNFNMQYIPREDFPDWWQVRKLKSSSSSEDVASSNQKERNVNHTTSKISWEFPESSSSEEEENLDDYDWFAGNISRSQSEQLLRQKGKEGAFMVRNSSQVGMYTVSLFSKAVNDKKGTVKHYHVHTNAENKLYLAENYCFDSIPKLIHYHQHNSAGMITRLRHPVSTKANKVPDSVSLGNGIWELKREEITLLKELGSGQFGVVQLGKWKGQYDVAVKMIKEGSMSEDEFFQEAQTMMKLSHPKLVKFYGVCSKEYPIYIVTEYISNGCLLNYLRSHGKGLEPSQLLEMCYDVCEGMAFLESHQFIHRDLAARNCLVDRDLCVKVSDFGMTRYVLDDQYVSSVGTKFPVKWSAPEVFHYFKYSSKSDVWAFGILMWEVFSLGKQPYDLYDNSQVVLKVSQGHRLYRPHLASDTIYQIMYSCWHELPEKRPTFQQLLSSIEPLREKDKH

ABL(E255K) = biological target: T4, ABL(E255K) (Homo sapiens, UniProt P00519, E255K); experiment: Off-chip Mobility Shift Assay, kinase inhibition; type: biochemical; conditions: recombinant ABL(E255K); for inhibition at 0.001 µM: at 1 nM; for inhibition at 0.01 µM: at 10 nM
T4 construct: purchased Carna Biosciences, Inc

SU-DHL-4 = experiment: Cell inhibition assay (PrestoBlue, 48 h); type: cell-based; conditions: Homo sapiens, SU-DHL-4, 48 h, SU-DHL-4 diffuse large B-cell lymphoma cells, read-out: IC50, inhibition of growth
ABL = biological target: T5, ABL (Homo sapiens, UniProt P00519); experiment: Off-chip Mobility Shift Assay, kinase inhibition; type: biochemical; conditions: recombinant ABL; for inhibition at 0.001 µM: at 1 nM; for inhibition at 0.01 µM: at 10 nM
T5 construct: purchased Carna Biosciences, Inc

PDGFRβ = biological target: T6, PDGFRβ (Homo sapiens, UniProt P09619); experiment: Off-chip Mobility Shift Assay, kinase inhibition; type: biochemical; conditions: at 10 nM; recombinant PDGFRβ; read-out: inhibition
T6 construct: purchased Carna Biosciences, Inc

FRK = biological target: T7, FRK (Homo sapiens, UniProt P42685); experiment: Off-chip Mobility Shift Assay, kinase inhibition; type: biochemical; conditions: at 10 nM; recombinant FRK
T7 construct: purchased Carna Biosciences, Inc

BTK = biological target: T8, BTK (Homo sapiens, UniProt Q06187); experiment: Off-chip Mobility Shift Assay, kinase inhibition; type: biochemical; conditions: recombinant BTK; for inhibition at 0.001 µM: at 1 nM; for inhibition at 0.01 µM: at 10 nM
T8 construct: purchased Carna Biosciences, Inc

FGR = biological target: T9, FGR (Homo sapiens, UniProt P09769); experiment: Off-chip Mobility Shift Assay, kinase inhibition; type: biochemical; conditions: at 10 nM; recombinant FGR; read-out: inhibition
T9 construct: purchased Carna Biosciences, Inc

PDGFRα = biological target: T10, PDGFRα (Homo sapiens, UniProt P16234); experiment: Off-chip Mobility Shift Assay, kinase inhibition; type: biochemical; conditions: at 10 nM; recombinant PDGFRα; read-out: inhibition
T10 construct: purchased Carna Biosciences, Inc

FMS = biological target: T11, FMS (Homo sapiens, UniProt P07333); experiment: Off-chip Mobility Shift Assay, kinase inhibition; type: biochemical; conditions: at 10 nM; recombinant FMS
T11 construct: purchased Carna Biosciences, Inc

YES = biological target: T12, YES (Homo sapiens, UniProt P07947); experiment: Off-chip Mobility Shift Assay, kinase inhibition; type: biochemical; conditions: recombinant YES; for inhibition at 0.001 µM: at 1 nM; for inhibition at 0.01 µM: at 10 nM
T12 construct: purchased Carna Biosciences, Inc

ACK = biological target: T13, ACK (Homo sapiens, UniProt Q07912); experiment: Off-chip Mobility Shift Assay, kinase inhibition; type: biochemical; conditions: at 10 nM; recombinant ACK
T13 construct: purchased Carna Biosciences, Inc

LYNa = biological target: T14, LYNa (Homo sapiens, UniProt P07948); experiment: Off-chip Mobility Shift Assay, kinase inhibition; type: biochemical; conditions: recombinant LYNa; for inhibition at 0.001 µM: at 1 nM; for inhibition at 0.01 µM: at 10 nM, read-out: inhibition
T14 construct: purchased Carna Biosciences, Inc

LCK = biological target: T15, LCK (Homo sapiens, UniProt P06239); experiment: Off-chip Mobility Shift Assay, kinase inhibition; type: biochemical; conditions: recombinant LCK; for inhibition at 0.001 µM: at 1 nM; for inhibition at 0.01 µM: at 10 nM
T15 construct: purchased Carna Biosciences, Inc

T6 sequence (P09619 33-1106): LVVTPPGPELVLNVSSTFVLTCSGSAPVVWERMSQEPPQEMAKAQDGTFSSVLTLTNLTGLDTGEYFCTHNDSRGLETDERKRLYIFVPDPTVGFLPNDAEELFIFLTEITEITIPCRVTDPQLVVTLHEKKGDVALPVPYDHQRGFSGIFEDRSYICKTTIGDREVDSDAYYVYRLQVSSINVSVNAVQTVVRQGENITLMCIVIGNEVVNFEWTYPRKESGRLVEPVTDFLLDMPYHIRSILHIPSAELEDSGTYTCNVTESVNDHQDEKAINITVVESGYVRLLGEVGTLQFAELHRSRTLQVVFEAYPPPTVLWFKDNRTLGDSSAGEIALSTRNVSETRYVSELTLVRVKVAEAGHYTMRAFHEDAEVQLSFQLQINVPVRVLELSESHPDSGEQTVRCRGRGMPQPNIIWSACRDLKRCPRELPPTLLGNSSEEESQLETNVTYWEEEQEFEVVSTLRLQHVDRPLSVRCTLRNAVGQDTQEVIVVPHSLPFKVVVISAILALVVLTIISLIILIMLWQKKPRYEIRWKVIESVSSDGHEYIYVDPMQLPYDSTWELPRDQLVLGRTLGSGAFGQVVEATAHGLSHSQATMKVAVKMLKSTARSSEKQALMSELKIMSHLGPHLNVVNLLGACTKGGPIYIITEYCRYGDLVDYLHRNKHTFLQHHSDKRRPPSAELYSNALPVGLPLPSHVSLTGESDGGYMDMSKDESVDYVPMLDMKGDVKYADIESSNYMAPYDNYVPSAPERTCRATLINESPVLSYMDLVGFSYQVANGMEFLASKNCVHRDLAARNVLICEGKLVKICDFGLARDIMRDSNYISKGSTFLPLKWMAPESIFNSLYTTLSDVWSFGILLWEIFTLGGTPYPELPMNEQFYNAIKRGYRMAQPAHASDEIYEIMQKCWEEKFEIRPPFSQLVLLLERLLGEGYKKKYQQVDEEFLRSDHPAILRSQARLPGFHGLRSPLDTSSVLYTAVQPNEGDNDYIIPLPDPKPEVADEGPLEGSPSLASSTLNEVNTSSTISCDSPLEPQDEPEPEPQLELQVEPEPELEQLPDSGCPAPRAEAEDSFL
T4 sequence (P00519 whole entry E255K): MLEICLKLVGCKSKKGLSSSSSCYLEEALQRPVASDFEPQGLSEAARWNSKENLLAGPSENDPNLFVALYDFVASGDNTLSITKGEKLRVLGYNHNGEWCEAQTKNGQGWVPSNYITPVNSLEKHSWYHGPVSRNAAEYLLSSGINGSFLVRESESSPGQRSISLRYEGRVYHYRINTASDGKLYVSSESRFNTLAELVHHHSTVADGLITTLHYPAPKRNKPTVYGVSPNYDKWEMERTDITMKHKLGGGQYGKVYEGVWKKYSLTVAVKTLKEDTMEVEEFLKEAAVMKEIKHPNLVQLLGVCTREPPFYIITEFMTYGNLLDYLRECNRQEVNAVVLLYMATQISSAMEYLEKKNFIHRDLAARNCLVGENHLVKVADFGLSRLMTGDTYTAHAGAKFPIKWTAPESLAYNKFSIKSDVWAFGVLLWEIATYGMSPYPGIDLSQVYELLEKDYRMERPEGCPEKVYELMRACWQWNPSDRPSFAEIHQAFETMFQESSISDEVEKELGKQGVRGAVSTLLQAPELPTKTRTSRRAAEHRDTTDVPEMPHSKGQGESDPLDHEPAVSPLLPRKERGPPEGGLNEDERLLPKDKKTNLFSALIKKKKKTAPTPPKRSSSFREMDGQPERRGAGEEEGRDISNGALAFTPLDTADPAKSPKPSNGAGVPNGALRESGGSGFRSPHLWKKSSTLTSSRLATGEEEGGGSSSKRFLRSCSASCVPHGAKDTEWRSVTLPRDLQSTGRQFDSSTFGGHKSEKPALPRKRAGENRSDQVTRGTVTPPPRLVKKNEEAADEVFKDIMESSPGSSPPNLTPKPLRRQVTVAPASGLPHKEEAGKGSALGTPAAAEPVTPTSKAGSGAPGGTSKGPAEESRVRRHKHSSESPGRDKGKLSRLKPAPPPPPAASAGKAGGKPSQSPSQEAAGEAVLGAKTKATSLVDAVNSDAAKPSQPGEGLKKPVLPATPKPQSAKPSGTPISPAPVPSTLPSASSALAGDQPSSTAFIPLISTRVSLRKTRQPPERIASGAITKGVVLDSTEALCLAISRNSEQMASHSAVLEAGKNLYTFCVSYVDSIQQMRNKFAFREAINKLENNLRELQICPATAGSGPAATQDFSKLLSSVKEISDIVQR
T9 sequence (P09769 whole entry): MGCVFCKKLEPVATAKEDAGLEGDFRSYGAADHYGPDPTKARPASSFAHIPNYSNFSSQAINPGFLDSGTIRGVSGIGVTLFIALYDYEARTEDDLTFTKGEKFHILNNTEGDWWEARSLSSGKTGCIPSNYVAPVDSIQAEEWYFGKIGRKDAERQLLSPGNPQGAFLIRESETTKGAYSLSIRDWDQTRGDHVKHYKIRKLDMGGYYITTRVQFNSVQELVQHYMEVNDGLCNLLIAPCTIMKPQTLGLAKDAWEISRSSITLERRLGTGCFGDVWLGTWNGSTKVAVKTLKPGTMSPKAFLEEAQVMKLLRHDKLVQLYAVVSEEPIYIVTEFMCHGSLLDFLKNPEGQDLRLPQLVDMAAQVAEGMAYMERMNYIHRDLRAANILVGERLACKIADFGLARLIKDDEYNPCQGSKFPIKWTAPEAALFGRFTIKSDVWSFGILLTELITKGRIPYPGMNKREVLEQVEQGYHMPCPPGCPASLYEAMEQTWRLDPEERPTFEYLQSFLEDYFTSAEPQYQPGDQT
T13 sequence (Q07912 whole entry): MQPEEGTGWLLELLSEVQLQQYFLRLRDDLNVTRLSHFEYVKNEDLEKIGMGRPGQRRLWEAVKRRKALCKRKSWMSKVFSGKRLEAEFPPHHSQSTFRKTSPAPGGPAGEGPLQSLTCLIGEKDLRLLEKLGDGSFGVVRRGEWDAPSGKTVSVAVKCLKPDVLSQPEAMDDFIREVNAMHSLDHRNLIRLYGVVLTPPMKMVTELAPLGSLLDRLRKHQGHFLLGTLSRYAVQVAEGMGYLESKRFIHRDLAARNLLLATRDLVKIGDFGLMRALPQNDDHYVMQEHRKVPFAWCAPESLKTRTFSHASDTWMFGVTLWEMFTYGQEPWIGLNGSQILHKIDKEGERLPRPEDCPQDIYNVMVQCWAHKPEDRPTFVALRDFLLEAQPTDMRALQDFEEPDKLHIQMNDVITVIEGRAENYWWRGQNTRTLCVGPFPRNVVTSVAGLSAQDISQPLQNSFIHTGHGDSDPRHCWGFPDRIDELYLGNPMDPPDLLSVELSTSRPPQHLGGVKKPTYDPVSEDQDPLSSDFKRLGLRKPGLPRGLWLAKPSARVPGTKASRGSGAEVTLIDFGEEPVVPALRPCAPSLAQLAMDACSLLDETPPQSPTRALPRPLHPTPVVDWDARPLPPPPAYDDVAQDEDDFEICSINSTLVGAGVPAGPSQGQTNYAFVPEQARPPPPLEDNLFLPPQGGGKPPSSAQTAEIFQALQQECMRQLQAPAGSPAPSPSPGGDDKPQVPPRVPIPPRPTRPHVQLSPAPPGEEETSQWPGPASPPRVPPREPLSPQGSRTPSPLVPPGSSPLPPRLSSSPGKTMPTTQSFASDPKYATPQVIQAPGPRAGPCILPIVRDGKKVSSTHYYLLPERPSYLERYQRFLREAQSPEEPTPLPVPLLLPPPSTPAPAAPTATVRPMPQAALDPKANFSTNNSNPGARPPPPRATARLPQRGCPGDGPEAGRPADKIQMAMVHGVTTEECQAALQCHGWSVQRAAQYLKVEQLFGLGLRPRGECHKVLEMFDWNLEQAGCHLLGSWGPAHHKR
T10 sequence (P16234 24-1089): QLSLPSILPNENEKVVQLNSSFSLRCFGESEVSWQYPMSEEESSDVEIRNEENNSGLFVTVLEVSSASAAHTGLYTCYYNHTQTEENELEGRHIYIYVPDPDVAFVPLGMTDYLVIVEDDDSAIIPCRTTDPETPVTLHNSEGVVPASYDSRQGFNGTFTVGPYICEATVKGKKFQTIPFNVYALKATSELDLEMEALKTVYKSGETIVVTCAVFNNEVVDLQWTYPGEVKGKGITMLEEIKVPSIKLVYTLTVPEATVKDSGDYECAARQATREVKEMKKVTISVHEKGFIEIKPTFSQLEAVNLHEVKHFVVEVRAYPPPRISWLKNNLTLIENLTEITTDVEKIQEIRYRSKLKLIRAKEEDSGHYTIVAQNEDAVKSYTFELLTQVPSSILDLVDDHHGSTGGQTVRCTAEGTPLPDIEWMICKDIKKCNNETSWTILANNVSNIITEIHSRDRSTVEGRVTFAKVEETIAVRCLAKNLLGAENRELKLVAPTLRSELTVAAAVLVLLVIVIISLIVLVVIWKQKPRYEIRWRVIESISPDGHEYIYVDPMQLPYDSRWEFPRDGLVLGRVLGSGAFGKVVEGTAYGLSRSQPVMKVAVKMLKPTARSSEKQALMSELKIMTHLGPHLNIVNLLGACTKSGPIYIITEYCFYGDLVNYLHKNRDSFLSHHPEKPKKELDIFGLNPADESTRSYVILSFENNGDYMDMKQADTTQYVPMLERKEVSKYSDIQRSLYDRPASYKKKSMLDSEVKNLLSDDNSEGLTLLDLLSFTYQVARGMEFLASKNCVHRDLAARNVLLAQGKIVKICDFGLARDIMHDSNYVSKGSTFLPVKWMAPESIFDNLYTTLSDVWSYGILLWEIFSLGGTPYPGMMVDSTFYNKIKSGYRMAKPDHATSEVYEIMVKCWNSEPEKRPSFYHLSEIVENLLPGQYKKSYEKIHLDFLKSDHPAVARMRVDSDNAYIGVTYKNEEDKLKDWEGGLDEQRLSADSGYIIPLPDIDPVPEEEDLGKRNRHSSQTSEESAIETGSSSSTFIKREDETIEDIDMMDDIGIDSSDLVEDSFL
T5 sequence (P00519 whole entry): as the sequence (P00519 whole entry E255K) above, with K255E counted along it

Compound	IC50 (Mino) [nM]	inhibition at 0.01 µM (PIK3CA/PIK3R1) [%]	inhibition at 0.01 µM (EPHA1) [%]	inhibition at 0.001 µM (BMX) [%]	inhibition at 0.01 µM (BMX) [%]	inhibition at 0.001 µM (ABL(E255K)) [%]	inhibition at 0.01 µM (ABL(E255K)) [%]	IC50 (SU-DHL-4) [nM]	inhibition at 0.001 µM (ABL) [%]	inhibition at 0.01 µM (ABL) [%]	inhibition at 0.01 µM (PDGFRβ) [%]	inhibition at 0.01 µM (FRK) [%]	inhibition at 0.001 µM (BTK) [%]	inhibition at 0.01 µM (BTK) [%]	inhibition at 0.01 µM (FGR) [%]	inhibition at 0.01 µM (PDGFRα) [%]	inhibition at 0.01 µM (FMS) [%]	inhibition at 0.001 µM (YES) [%]	inhibition at 0.01 µM (YES) [%]	inhibition at 0.01 µM (ACK) [%]	also measured
[2H]c1cc(C)c(NC(=O)c2cnc(Nc3cc(N4CC[C@@H](N)C4)nc(C)n3)s2)c(Cl)c1 [Compound VII, N-(2-chloro-4-deutero-6-methylphenyl)-2-[[2-methyl-6-((R)-3-aminopyrrolidin-1-yl)pyrimidin-4-yl]amino]thiazole-5-carboxamide]	< 50	> 50	> 50	> 50	> 50	> 50	> 50	< 20	> 50	> 50	> 50	> 50	> 50	> 50	> 50	> 50	> 50	> 50	> 50	> 50	inhibition at 0.001 µM (LYNa): > 50%; inhibition at 0.01 µM (LYNa): > 50%; inhibition at 0.001 µM (LCK): > 50%; inhibition at 0.01 µM (LCK): > 50%
Cc1nc(Nc2ncc(C(=O)Nc3c(C)cccc3Cl)s2)cc(N2CC[C@@H](N)C2)n1 [Compound XIII, N-(2-chloro-6-methylphenyl)-2-[[2-methyl-6-((R)-3-aminopyrrolidin-1-yl)pyrimidin-4-yl]amino]thiazole-5-carboxamide]	< 50	> 50	> 50	> 50	> 50	> 50	> 50	< 20	> 50	> 50	> 50	> 50	> 50	> 50	> 50	> 50	> 50	> 50	> 50	> 50	inhibition at 0.001 µM (LYNa): > 50%; inhibition at 0.01 µM (LYNa): > 50%; inhibition at 0.001 µM (LCK): > 50%; inhibition at 0.01 µM (LCK): > 50%
[2H]c1cc(C)c(NC(=O)c2cnc(Nc3cc(N4CC[C@H](N)C4)nc(C)n3)s2)c(Cl)c1 [Compound VI, N-(2-chloro-4-dutero-6-methylphenyl)-2-[[2-methyl-6-((S)-3-aminopyrrolidin-1-yl)pyrimidin-4-yl]amino]thiazole-5-carboxamide]	< 50	> 50	> 50	> 50	> 50	> 50	> 50	< 20	> 50	> 50	> 50	> 50	> 50	> 50	> 50	> 50	> 50	> 50	> 50	> 50	inhibition at 0.001 µM (LYNa): > 50%; inhibition at 0.01 µM (LYNa): > 50%; inhibition at 0.001 µM (LCK): > 50%; inhibition at 0.01 µM (LCK): > 50%
Cc1nc(Nc2ncc(C(=O)Nc3c(C)cccc3Cl)s2)cc(N2CCCCC2)n1 [Compound VIII, N-(2-chloro-6-methylphenyl)-2-[[2-methyl-6-(piperidin-1-yl)pyrimidin-4-yl]amino]thiazole-5-carboxamide]	< 50	> 50	> 50	> 50	> 50	> 50	> 50	< 20	> 50	> 50	> 50	> 50	> 50	> 50	> 50	> 50	> 50	> 50	> 50	> 50	inhibition at 0.001 µM (LYNa): > 50%; inhibition at 0.01 µM (LYNa): > 50%; inhibition at 0.001 µM (LCK): > 50%; inhibition at 0.01 µM (LCK): > 50%
Cc1nc(Nc2ncc(C(=O)Nc3c(C)cccc3Cl)s2)cc(N2CCC(O)CC2)n1 [Compound IX, N-(2-chloro-6-methylphenyl)-2-[[2-methyl-6-(4-hydroxypiperidin-1-yl)pyrimidin-4-yl]amino]thiazole-5-carboxamide]	< 50	> 50	> 50	> 50	> 50	> 50	> 50	< 20	> 50	> 50	> 50	> 50	> 50	> 50	> 50	> 50	> 50	> 50	> 50	> 50	inhibition at 0.001 µM (LYNa): > 50%; inhibition at 0.01 µM (LYNa): > 50%; inhibition at 0.001 µM (LCK): > 50%; inhibition at 0.01 µM (LCK): > 50%
